Assay results reported in US20260365692A1, “COMPOSITIONS COMPRISING PROTEINS DISSOLVED IN FLUORINATED SOLVENTS, AND METHODS OF MAKING AND USING THE SAME” (priority 2022, published 2026).

Experiments:
BSA = BSA (Bos taurus, UniProt P02769); experiment: Surface plasmon resonance, BSA; assay type: binding, bovine; settings: after reference correction
Description: (§1) FIGS. 14A-14L depict circular dichroism spectra of Hb (FIG. 14A), GFP (FIG. 14B), BSA (FIG. 14C), β-Gal (FIG. 14D), rabbit serum IgG (FIG. 14E), transferrin (FIG. 14F), and urease (FIG. 14G) in the absence (black line) or presence (dashed lines) of PFNA. Increasing dash sequence indicated higher concentration of PFNA. FIG. 14H: Change in molar ellipticity at 216 nm (Δθ216) of PFNA-treated proteins, relative to native controls, as a function of increasing ligand concentration. FIG. 14I: Percentage change in secondary structural motifs of Hb, β-Gal and IgG between the native protein and 1 mM PFNA treated samples. β-sheet structures were further differentiated into parallel and antiparallel conformations. Hb, β-Gal and IgG were prioritized for analysis based on their significant spectral shift in the presence of 1 mM PFNA. FIGS. 14J-14L: Sensograms for BSA (FIG. 14J), β-gal (FIG. 14K), and IgG (FIG. 14L) showing relative response (R.U.) at 10, 25, 50, 75, and 100 μM.
(§2) To test this assertion, PFNA binding to three exemplary proteins, BSA, β-Gal and IgG, was studied via isothermal titration calorimetry (ITC) and surface plasmon resonance (SPR) techniques. […] SPR analysis yielded similar results, with sensorgrams (FIGS. 14J-14L) that diverged from a simple 1:1 ligand-protein model. […]

β-gal = experiment: Surface plasmon resonance, β-Gal; assay type: binding; settings: after reference correction
Description: as §1, §2

HepG2 cells = experiment: HepG2 MTT viability assay (Example 2); assay type: cell-based, human; settings: Homo sapiens, HepG2, 37 °C overnight
Experimental: FIG. 28 depicts a viability assay for HepG2 cells treated with two first generation compounds and two second generation compounds.
Next, viability assays were performed by seeding HepG2 (liver cancer cell line) onto 96 well plates and allowing the cells to adhere overnight. DMEM cell culture media containing various concentrations of each FTag compound were then added, and the plates were incubated at 37 °C overnight. The supernatant was then removed and MTT viability dyes were added to each well and allowed to convert for 2 hours. Dye absorbance for each condition was then compared to positive (20% DMSO) and negative (blank media) controls to calculate % viability (FIG. 28).

TFN = TFN (Bos taurus, UniProt Q29443); experiment: 19F NMR of PFNA with TFN; assay type: binding, bovine
Description: This further supported the conclusion that, like TFE, adsorption of PFNA to protein surfaces aligned the fluorinated tail parallel to the solvent accessible exterior, with further stabilization via F . . . H bonding with surface N—H groups (FIG. 12, FIGS. 12A-12E, and FIG. 13). This ultimately generated the fluorine rich coating that altered water accessibility and promoted secondary structure.

[1] = Protein activity after elevated temperature exposure (Example 4); assay type: physicochemical
Experimental: A group of enzyme proteins, β-Gal and Trypsin was chosen for this study. β-Gal and Trypsin were diluted in PBS or dispersed in PFOc at 1 μM and 10 μM, respectively. Next, a subset of samples was subjected to elevated temperature condition (90 °C) well beyond their native denaturation temperature for 30 minutes. After that, samples were allowed to cool down to room temperature before retrieval. For PFOc samples, proteins were extracted into PBS before performing the ensuing assays. To determine the enzymatic activity, an equal volume of protein samples was added to their substrates dissolved in PBS (4 mg/mL ONPG for β-Gal or 1 mg/mL BAEE for Trypsin). After incubation, ONPG and BAEE substrate conversions were measured by taking absorbance using a microplate reader at 420 nm or 400 nm, respectively. In case of intrinsic fluorescence, GFP was similarly prepared, and heat treated. After GFP samples were retrieved, fluorescent intensity was taken at λex=490 nm, λem=520 nm. The change in protein activity was presented by normalizing to spectrometric readings of each protein dissolved in PBS without being subjected to heat (room temperature). […] This supports the assertion that the fluorous coating and solvent environments, together, serve to constrain the conformational flexibility of the dispersed protein and, as a result, increase its melting temperature.

[2] = Acute toxicity in C57BL/6J mice (Example 3); assay type: in vivo; settings: 24 h
Experimental: Two groups (n=5) of C57BL/6J mice received […] of 10 μM solutions of β-Gal that was either 1) prepared in sterile PBS or 2) dissolved in PFOc (1 mM PFNA) and extracted into sterile PBS. Due to the large solution volumes given (150 μL, ~15% of mouse blood volume), PFOc dispersed proteins were extracted into sterile saline before injection to avoid hyponatremia. Samples were administered by tail vein injection.
To assess acute toxicity, animals were intravenously administered solutions of β-Gal either prepared in sterile PBS or dissolved in PFOc (1 mM PFNA) and extracted into sterile PBS, as described above. After 24 hours, mice were sacrificed, and blood was collected via cardiac puncture. A minimum of 100 μL of whole blood was added to EDTA for complete blood count. The remainder was centrifuged (1000 rcf, 10 minutes) to isolate serum for chemistry analysis. Tissues (lungs, livers, kidneys, and spleens) from euthanized animals were collected and stored in 10% buffered-formalin immediately after euthanasia. […] from each organ were mounted onto glass slides and stained with Hematoxylin and Eosin (H&E). Four random fields in each section were examined under a microscope at 5× and 40× magnification. Tissue relevant clinical features were compared across samples. […]

Chain of TFN (Q29443 20-704): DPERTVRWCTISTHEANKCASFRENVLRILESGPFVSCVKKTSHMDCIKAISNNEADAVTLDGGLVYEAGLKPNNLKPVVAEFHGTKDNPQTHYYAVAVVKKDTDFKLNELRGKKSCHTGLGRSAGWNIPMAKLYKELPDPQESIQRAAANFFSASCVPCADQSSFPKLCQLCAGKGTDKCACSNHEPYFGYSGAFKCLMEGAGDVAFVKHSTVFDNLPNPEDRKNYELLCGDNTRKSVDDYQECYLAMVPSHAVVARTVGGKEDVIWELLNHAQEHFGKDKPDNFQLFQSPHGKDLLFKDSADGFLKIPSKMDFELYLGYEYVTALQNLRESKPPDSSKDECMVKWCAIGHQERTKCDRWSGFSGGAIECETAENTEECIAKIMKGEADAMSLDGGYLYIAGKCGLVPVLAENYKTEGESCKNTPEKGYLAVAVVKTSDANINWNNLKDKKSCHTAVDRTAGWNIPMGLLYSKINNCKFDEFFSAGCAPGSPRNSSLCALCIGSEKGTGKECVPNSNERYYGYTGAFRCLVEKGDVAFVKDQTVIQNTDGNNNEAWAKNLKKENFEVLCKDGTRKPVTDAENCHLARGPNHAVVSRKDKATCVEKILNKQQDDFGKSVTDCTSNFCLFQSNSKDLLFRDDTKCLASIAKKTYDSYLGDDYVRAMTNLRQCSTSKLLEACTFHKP
Chain of BSA (P02769 25-607): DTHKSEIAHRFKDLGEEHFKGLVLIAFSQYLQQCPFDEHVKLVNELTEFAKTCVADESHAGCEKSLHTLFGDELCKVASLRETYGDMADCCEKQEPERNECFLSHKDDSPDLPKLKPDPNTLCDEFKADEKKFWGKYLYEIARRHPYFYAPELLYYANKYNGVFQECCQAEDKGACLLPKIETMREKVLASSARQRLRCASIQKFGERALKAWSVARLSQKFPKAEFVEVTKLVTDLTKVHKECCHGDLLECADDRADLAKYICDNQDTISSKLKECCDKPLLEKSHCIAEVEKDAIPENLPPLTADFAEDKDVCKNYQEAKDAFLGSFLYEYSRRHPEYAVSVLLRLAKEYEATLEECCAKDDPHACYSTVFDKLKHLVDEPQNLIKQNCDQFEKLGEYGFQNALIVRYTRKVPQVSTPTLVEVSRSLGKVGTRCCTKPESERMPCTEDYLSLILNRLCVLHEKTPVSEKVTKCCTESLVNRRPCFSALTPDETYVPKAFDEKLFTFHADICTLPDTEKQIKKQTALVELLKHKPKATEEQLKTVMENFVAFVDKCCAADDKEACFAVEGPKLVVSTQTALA

Row | Compound | SPR response (BSA) | SPR response (β-gal) | IC50 (HepG2 cells) [µM] | 19F NMR peak change upon interaction (TFN) | retention of bioactivity / function at elevated temperature ([1]; proteins dispersed into fluorous solvent using the dispersant, up to 90 °C) | BUN, RBC, HGB, HCT versus sham saline injection control ([2]; PFOc β-Gal, i.v.) | histologic organ analyses ([2]; lung, kidney, liver, spleen, β-Gal from PFOc) | change in activity after heating ([1]; PFOc dispersed, 90 °C for 30 minutes) | loss of bioactivity after heating ([1]; saline, 90 °C for 30 minutes) [%]
1 | O=C(O)C(F)(F)C(F)(F)C(F)(F)C(F)(F)C(F)(F)C(F)(F)C(F)(F)C(F)(F)F [Compound 7, perfluoronanonic acid] | negative responses | negative responses | 540 | broadening of PFNA's peaks | structured and functional at temperatures as high as 90 °C | – | – | – | –
2 | β-Gal: β-Galactosidase (β-Gal), dissolved in PBS/saline or dispersed in PFOc | – | – | – | – | – | none of these markers were statistically different | did not identify signs of necrosis, cellular infiltration, inflammation, or hemorrhage | no statistically significant change in activity | > 90
